In patent US9717748B2, “Compositions and methods for treating an infection” (CMPD LICENSING, LLC, priority 2015, dated 2017):
Like-named read-outs stand apart in the source and are kept apart here.

Legend:
[1] = system: Bacteroides fragilis; assay: Expected efficacy of antibiotic agents; conditions: Gram: anaer
[2] = system: Clostridium difficile; assay: Expected efficacy of antibiotic agents; conditions: Gram: anaer
[3] = system: Chlamydia pneumoniae; assay: Expected efficacy of antibiotic agents; conditions: Gram: n/a
[4] = system: Chlamydia psittaci
[5] = system: Chlamydia trachomatis; assay: Expected efficacy of antibiotic agents; conditions: Gram: n/a
[6] = system: Mycoplasma pneumoniae; assay: Expected efficacy of antibiotic agents; conditions: Gram: n/a
[7] = system: Bordetella pertussis; assay: Expected efficacy of antibiotic agents; conditions: Gram: neg
[8] = system: Brucella species
[9] = system: Enterobacter cloacae; assay: Expected efficacy of antibiotic agents; conditions: Gram: neg
[10] = system: Enterobacter sakazakii; assay: Expected efficacy of antibiotic agents; conditions: Gram: neg
[11] = system: Haemophilus parainfluenzae; assay: Expected efficacy of antibiotic agents; conditions: Gram: neg
[12] = system: Klebsiella (Calymmato-bacterium) granulomatis; assay: Expected efficacy of antibiotic agents; conditions: Gram: neg
[13] = system: Klebsiella pneumoniae; assay: Expected efficacy of antibiotic agents; conditions: Gram: neg
[14] = system: Legionella pneumophila
[15] = system: Moraxella catarrhalis; assay: Expected efficacy of antibiotic agents; conditions: Gram: neg
[16] = system: Neisseria gonorrhoeae; assay: Expected efficacy of antibiotic agents; conditions: Gram: neg
[17] = system: Neisseria meningitidis; assay: Expected efficacy of antibiotic agents; conditions: Gram: neg
[18] = system: Proteus mirabilis; assay: Expected efficacy of antibiotic agents; conditions: Gram: neg
[19] = system: Proteus vulgaris; assay: Expected efficacy of antibiotic agents; conditions: Gram: neg
[20] = system: Providencia rettgeri; assay: Expected efficacy of antibiotic agents; conditions: Gram: neg
[21] = system: Providencia stuartii; assay: Expected efficacy of antibiotic agents; conditions: Gram: neg
[22] = system: Pseudomonas aeruginosa; assay: Expected efficacy of antibiotic agents; conditions: Gram: neg
[23] = system: Serratia marcescens; assay: Expected efficacy of antibiotic agents; conditions: Gram: neg
[24] = system: Vibrio cholerae; assay: Expected efficacy of antibiotic agents; conditions: Gram: neg
[25] = system: Corynebacterium jeikeium; assay: Expected efficacy of antibiotic agents; conditions: Gram: pos
[26] = system: Corynebacterium urealyticum; assay: Expected efficacy of antibiotic agents; conditions: Gram: pos
[27] = system: Diphtheroids; assay: Expected efficacy of antibiotic agents; conditions: Gram: pos
[28] = system: Enterococcus faecalis; assay: Expected efficacy of antibiotic agents; conditions: Gram: pos
[29] = system: Enterococcus faecium; assay: Expected efficacy of antibiotic agents; conditions: Gram: pos
[30] = system: Methicillin resistant staphaureus (MRSA); assay: Expected efficacy of antibiotic agents; conditions: Gram: pos
[31] = system: Peptostreptococcus; assay: Expected efficacy of antibiotic agents; conditions: Gram: pos
[32] = system: Staphylococcus aureus (MSSA); assay: Expected efficacy of antibiotic agents; conditions: Gram: pos
[33] = system: Staphylococcus epidermidis; assay: Expected efficacy of antibiotic agents; conditions: Gram: pos
[34] = system: Streptococcus agalactiae; assay: Expected efficacy of antibiotic agents; conditions: Gram: pos
[35] = system: Streptococcus pneumoniae; assay: Expected efficacy of antibiotic agents; conditions: Gram: pos
[36] = system: Streptococcus pyogenes; assay: Expected efficacy of antibiotic agents; conditions: Gram: pos
[37] = system: Viridans group streptococci; assay: Expected efficacy of antibiotic agents; conditions: Gram: pos
[38] = system: Clostridium perfringens
[39] = system: Acinetobacter baumannii; assay: Expected efficacy of antibiotic agents; conditions: Gram: neg
[40] = system: Acinetobacter calcoaceticus; assay: Expected efficacy of antibiotic agents; conditions: Gram: neg
[41] = system: Acinetobacter lwoffii; assay: Expected efficacy of antibiotic agents; conditions: Gram: neg
[42] = system: Bartonella bacilliformis; assay: Expected efficacy of antibiotic agents; conditions: Gram: neg
[43] = system: Campylobacter jejuni; assay: Expected efficacy of antibiotic agents; conditions: Gram: neg
[44] = system: Citrobacter diversus; assay: Expected efficacy of antibiotic agents; conditions: Gram: neg
[45] = system: Citrobacter freundii; assay: Expected efficacy of antibiotic agents; conditions: Gram: neg
[46] = system: Enterobacter aerogenes; assay: Expected efficacy of antibiotic agents; conditions: Gram: neg
[47] = system: Escherichia coli; assay: Expected efficacy of antibiotic agents; conditions: Gram: neg
[48] = system: Francisella tularensis
[49] = system: Haemophilus ducreyi; assay: Expected efficacy of antibiotic agents; conditions: Gram: neg
[50] = system: Haemophilus influenzae; assay: Expected efficacy of antibiotic agents; conditions: Gram: neg
[51] = system: Klebsiella oxytoca; assay: Expected efficacy of antibiotic agents; conditions: Gram: neg
[52] = system: Morganella morganii; assay: Expected efficacy of antibiotic agents; conditions: Gram: neg
[53] = system: Pseudomonas fluorescens; assay: Expected efficacy of antibiotic agents; conditions: Gram: neg
[54] = system: Rickettsiae
[55] = system: Salmonella typhi; assay: Expected efficacy of antibiotic agents; conditions: Gram: neg
[56] = system: Shigella boydii; assay: Expected efficacy of antibiotic agents; conditions: Gram: neg
[57] = system: Shigella dysenteriae; assay: Expected efficacy of antibiotic agents; conditions: Gram: neg
[58] = system: Shigella flexneri; assay: Expected efficacy of antibiotic agents; conditions: Gram: neg
[59] = system: Shigella sonnei; assay: Expected efficacy of antibiotic agents; conditions: Gram: neg
[60] = system: Yersinia pestis

Colistimethate
Expected efficacy against Bacteroides fragilis [1]: no
Expected efficacy against Clostridium difficile [2]: no
Expected efficacy against Chlamydia pneumoniae [3]: no
Expected efficacy against Chlamydia psittaci ([4]; Gram: n/a): no
Expected efficacy against Chlamydia trachomatis [5]: no
Expected efficacy against Mycoplasma pneumoniae [6]: no
Expected efficacy against Bordetella pertussis [7]: no
Expected efficacy against Brucella species ([8]; Gram: neg): no
Expected efficacy against Enterobacter cloacae [9]: yes
Expected efficacy against Enterobacter sakazakii [10]: yes
Expected efficacy against Haemophilus parainfluenzae [11]: no
Expected efficacy against Klebsiella (Calymmato-bacterium) granulomatis [12]: yes
Expected efficacy against Klebsiella pneumoniae [13]: yes
Expected efficacy against Legionella pneumophila ([14]; Gram: neg): no
Expected efficacy against Moraxella catarrhalis [15]: no
Expected efficacy against Neisseria gonorrhoeae [16]: no
Expected efficacy against Neisseria meningitidis [17]: no
Expected efficacy against Proteus mirabilis [18]: no
Expected efficacy against Proteus vulgaris [19]: no
Expected efficacy against Providencia rettgeri [20]: no
Expected efficacy against Providencia stuartii [21]: no
Expected efficacy against Pseudomonas aeruginosa [22]: yes
Expected efficacy against Serratia marcescens [23]: no
Expected efficacy against Vibrio cholerae [24]: no
Expected efficacy against Corynebacterium jeikeium [25]: no
Expected efficacy against Corynebacterium urealyticum [26]: no
Expected efficacy against Diphtheroids [27]: no
Expected efficacy against Enterococcus faecalis [28]: no
Expected efficacy against Enterococcus faecium [29]: no
Expected efficacy against Methicillin resistant staphaureus (MRSA) [30]: no
Expected efficacy against Peptostreptococcus [31]: no
Expected efficacy against Staphylococcus aureus (MSSA) [32]: yes
Expected efficacy against Staphylococcus epidermidis [33]: no
Expected efficacy against Streptococcus agalactiae [34]: no
Expected efficacy against Streptococcus pneumoniae [35]: no
Expected efficacy against Streptococcus pyogenes [36]: no
Expected efficacy against Viridans group streptococci [37]: no

CN[C@H](CC(C)C)C(=O)N[C@H]1C(=O)N[C@@H](CC(N)=O)C(=O)N[C@H]2C(=O)N[C@H]3C(=O)N[C@H](C(=O)N[C@H](C(=O)O)c4cc(O)cc(O)c4-c4cc3ccc4O)[C@H](O)c3ccc(c(Cl)c3)Oc3cc2cc(c3O[C@@H]2O[C@H](CO)[C@@H](O)[C@H](O)[C@H]2O[C@H]2C[C@](C)(N)[C@H](O)[C@H](C)O2)Oc2ccc(cc2Cl)[C@H]1O [Vancomycin]
Expected efficacy against Bacteroides fragilis [1]: no
Expected efficacy against Clostridium difficile [2]: yes
Expected efficacy against Clostridium perfringens [38]: no
Expected efficacy against Chlamydia pneumoniae [3]: no
Expected efficacy against Chlamydia psittaci [4]: no
Expected efficacy against Chlamydia trachomatis [5]: no
Expected efficacy against Mycoplasma pneumoniae [6]: no
Expected efficacy against Acinetobacter baumannii [39]: no
Expected efficacy against Acinetobacter calcoaceticus [40]: no
Expected efficacy against Acinetobacter lwoffii [41]: no
Expected efficacy against Bartonella bacilliformis [42]: no
Expected efficacy against Bordetella pertussis [7]: no
Expected efficacy against Brucella species [8]: no
Expected efficacy against Campylobacter jejuni [43]: no
Expected efficacy against Citrobacter diversus [44]: no
Expected efficacy against Citrobacter freundii [45]: no
Expected efficacy against Enterobacter aerogenes [46]: no
Expected efficacy against Enterobacter cloacae [9]: no
Expected efficacy against Enterobacter sakazakii [10]: no
Expected efficacy against Escherichia coli [47]: no
Expected efficacy against Francisella tularensis [48]: no
Expected efficacy against Haemophilus ducreyi [49]: no
Expected efficacy against Haemophilus influenzae [50]: no
Expected efficacy against Haemophilus parainfluenzae [11]: no
Expected efficacy against Klebsiella (Calymmato-bacterium) granulomatis [12]: no
Expected efficacy against Klebsiella oxytoca [51]: no
Expected efficacy against Klebsiella pneumoniae [13]: no
Expected efficacy against Legionella pneumophila [14]: no
Expected efficacy against Moraxella catarrhalis [15]: no
Expected efficacy against Morganella morganii [52]: no
Expected efficacy against Neisseria gonorrhoeae [16]: no
Expected efficacy against Neisseria meningitidis [17]: no
Expected efficacy against Proteus mirabilis [18]: no
Expected efficacy against Proteus vulgaris [19]: no
Expected efficacy against Providencia rettgeri [20]: no
Expected efficacy against Providencia stuartii [21]: no
Expected efficacy against Pseudomonas aeruginosa [22]: no
Expected efficacy against Pseudomonas fluorescens [53]: no
Expected efficacy against Rickettsiae [54]: no
Expected efficacy against Salmonella typhi [55]: no
Expected efficacy against Serratia marcescens [23]: no
Expected efficacy against Shigella boydii [56]: no
Expected efficacy against Shigella dysenteriae [57]: no
Expected efficacy against Shigella flexneri [58]: no
Expected efficacy against Shigella sonnei [59]: no
Expected efficacy against Vibrio cholerae [24]: no
Expected efficacy against Yersinia pestis [60]: no
Expected efficacy against Corynebacterium jeikeium [25]: yes
Expected efficacy against Corynebacterium urealyticum [26]: yes
Expected efficacy against Diphtheroids [27]: yes
Expected efficacy against Enterococcus faecium [29]: yes, not VRE
Expected efficacy against Peptostreptococcus [31]: yes
Expected efficacy against Staphylococcus aureus (MSSA) [32]: yes
Expected efficacy against Staphylococcus epidermidis [33]: yes
Expected efficacy against Streptococcus agalactiae [34]: yes
Expected efficacy against Streptococcus pyogenes [36]: yes
Expected efficacy against Viridans group streptococci [37]: yes
